Assay results: article PMC11420946, “An Engineered Nisin Analogue with a Hydrophobic Moiety Attached at Position 17 Selectively Inhibits Enterococcus faecium Strains” (ACS Chemical Biology, 2024)
≈ marks a conversion by molar mass, not a printed value.

Tests used:
L. monocytogenes TT82E = test: Spot-on-lawn assay; type: cell-based; conditions: triplicate
Enterococcus faecium = test: Agar well diffusion assay against Enterococcus faecium; type: cell-based; conditions: for Antibacterial activity against Enterococcus faecium (in words): Figure 5, HPLC-purified peptide, 30 μL of 0.1 mg mL^–1 per well
Method: (§1) To confirm that this procedure yields the modified nisin and at high purity, HPLC analysis of purified 47 was performed (Figure S2). Based on the area of the peaks, the purity of 47 is 96%. Subsequently, 30 μL of 0.1 mg mL^–1 purified compound was added to the well to assess their activity.
(§2) Cultures grown overnight were introduced into 0.8% LB agar for Listeria monocytogenes or GM17 agar for Enterococcus faecium at a temperature of 45 °C, reaching a final concentration of 0.1% (v/v). Subsequently, 30 mL of the mixture was poured onto the plate. Upon solidification of the agar, 8 mm wells were created, and 30 μL of the aforementioned clicked solutions was spotted into the wells. The agar plate underwent overnight incubation at 37 °C followed by measurement of inhibition zones. By comparing the antimicrobial impact of the click chemistry products in this screening assay, we assume that the yields of the different reactions are similar. Zone diameters were recorded in millimeters, with the zone area (πr^2) minus the well area (πr^2) measured in millimeters.[44]

[1] = test system: S. aureus LMG15975 (MRSA); test: Spot-on-lawn assay; type: cell-based; conditions: triplicate
[2] = test system: E. faecium ATCC U0317 (ACRE); test: Spot-on-lawn assay; type: cell-based; conditions: triplicate
E. faecium LMG11423 = test: Spot-on-lawn assay; type: cell-based; conditions: triplicate
Escherichia coli CECT101 = test: Spot-on-lawn assay; type: cell-based; conditions: triplicate
[3] = test system: E. faecium ATCC E1162 (ARE); test: Spot-on-lawn assay; type: cell-based; conditions: triplicate
[4] = test system: E. faecalis LMG16216 (VRE); test: Spot-on-lawn assay; type: cell-based; conditions: triplicate
B. cereus CH-85 = test: Spot-on-lawn assay; type: cell-based; conditions: triplicate
[5] = test system: L. monocytogenes LMG10470; test: Spot-on-lawn assay; type: cell-based; conditions: triplicate
S. aureus LMG10147 = test: Spot-on-lawn assay; type: cell-based; conditions: triplicate
[6] = test system: E. faecium LMG16003 (VRE); test: Spot-on-lawn assay; type: cell-based; conditions: triplicate
Listeria monocytogenes = test: Agar well diffusion assay against Listeria monocytogenes; type: cell-based; conditions: Figure 4, second round; 30 μL click reaction solution in 8 mm well, LB agar, overnight 37 °C; triplicate
Method: as §1, §2

[7] = test system: E. faecium ATCC E1321 (AGRE); test: Spot-on-lawn assay; type: cell-based; conditions: triplicate
proteinase K = proteinase K (Parengyodontium album, UniProt P06873); test: Effect of proteolytic enzymes on antibacterial activity: proteinase K; conditions: 30 μL peptide 1 mg mL^–1 in agar well with 1 mg mL^–1 proteinase K, pH 7.2, overnight 30 °C; read-out inhibition zone area on L. lactis MG1363 versus no-enzyme control; three independent experiments
Chain of proteinase K (P06873 106-384): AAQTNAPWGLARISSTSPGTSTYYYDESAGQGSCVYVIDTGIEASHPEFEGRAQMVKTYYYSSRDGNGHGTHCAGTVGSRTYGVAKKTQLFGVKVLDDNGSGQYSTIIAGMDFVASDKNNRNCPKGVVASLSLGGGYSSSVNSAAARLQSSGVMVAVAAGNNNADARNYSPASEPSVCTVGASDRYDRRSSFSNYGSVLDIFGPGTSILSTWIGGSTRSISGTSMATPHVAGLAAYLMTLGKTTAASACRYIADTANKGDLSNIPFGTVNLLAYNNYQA
Method: (§3) Next the resistance against the proteolytic enzymes trypsin, chymotrypsin, and protease K was investigated by adding these enzymes in separate experiments to assay wells followed by overnight incubation at 30 °C.
(§4) The impact of proteolytic enzymes and temperature on antimicrobial activity was investigated using the representative strain L. lactis MG1363 through the agar well diffusion assay. Thirty microliters of the HPLC purified peptide (1 mg mL^–1) was directly introduced into the agar well containing a final concentration of 1 mg mL^–1 proteolytic enzymes (pH 7.2) or no proteolytic enzyme (control). The plates were incubated overnight at 30 °C followed by the measurement of inhibition zones. Temperature stability was assessed by incubating the peptide at 22, 55, 70, and 90 °C for the specified duration.

chymotrypsin = test: Effect of proteolytic enzymes on antibacterial activity: chymotrypsin; conditions: 30 μL peptide 1 mg mL^–1 in agar well with 1 mg mL^–1 chymotrypsin, pH 7.2, overnight 30 °C; read-out inhibition zone area on L. lactis MG1363 versus no-enzyme control; three independent experiments
Method: as §3, §4

human red blood cells = test: Hemolysis assay; type: cell-based; conditions: 200 mg/L versus MIC
Method: Considering the potential therapeutic application of a bacteriocin, ensuring its safety is of critical importance. Previous studies have identified hemolytic activities in certain bacteriocins, such as listeriolysin S from Listeria monocytogenes([33]) and cytolysin from Enterococcus faecalis.[34] […] Therefore, a close evaluation of the safety of new bacteriocins is essential. In this study, a hemolytic activity assay was conducted to assess the safety of compounds 16 and 47. In this assay, human blood cells were incubated with varying concentrations of compound 16, compound 47, and nisin, ranging from 0.39 to 200 mg/L. Following a 1 h incubation at 37 °C, we measured the OD414 of the supernatants, and hemolytic activities were calculated, with 10% Triton X-100 serving as a positive control.
Erythrocytes were sourced from a healthy human volunteer donor, and whole human blood was subjected to centrifugation at 600g for 15 min. Subsequently, plasma was removed, and the erythrocytes were subjected to three washes with PBS (pH 7) by centrifugation at 600g for 15 min each. […] The supernatant was transferred to a 96-well plate, and absorbance was measured at a wavelength of 414 nm using a Thermo Scientific Varioskan LUX multimode microplate reader. The absorbance, relative to the positive control treated with 10% Triton X-100, was defined as the percentage of hemolysis.

[8] = test system: Enterococcus faecium LMG16003 (VRE); type: cell-based; conditions: as stated in the abstract
Method: Minimal inhibitory concentration (MIC) values were determined through broth microdilution following standard guidelines.[29]

[9] = Spot-on-lawn assay to measure peptide-lipid II complex formation; type: binding; conditions: lipid II 300 μM, 2 μL spotted at edge of halo; lawns of E. faecium and S. aureus, overnight 37 °C
Method: To assess the interaction between the HPLC purified peptide and lipid II, an overnight culture was introduced into 0.8% GM17 medium for E. faecium or LB medium for S. aureus (w/v, temperature 45 °C) at a final concentration of 1% (v/v). Subsequently, this mixture was evenly distributed onto 10 mL plates. The binding affinity of the peptide and lipid II was further examined by applying purified lipid II (300 μM, 2 μL) to the periphery of the antibiotic inhibition halo. Briefly, HPLC purified antimicrobials were initially applied to the agar plate, and once the antimicrobial solution drops had dried, lipid II was spotted along the edge of the inhibition halo. The plates were then incubated overnight at 37 °C.

[10] = Effect of temperature on antibacterial activity (thermal stability); type: physicochemical; conditions: higher temperatures of 22, 55, 70, 90 °C, 8 h storage; read-out inhibition zone area on L. lactis MG1363 relative to 0 h; three independent experiments
Method: Figure S4. Investigation of the thermal stability profile of nisin (compound 1) and compound 47. Thermal stability was evaluated across a temperature range from 22 to 90 °C within an 8-hour incubation period.
Relative antimicrobial activity of the peptides following exposure to different temperatures. The relative activity was determined by calculating the area at different time points divided by the area at the start point (labeled 0 h), multiplied by 100%. Three independent experiments were conducted.

Row | Structure (SMILES) | Antimicrobial activity, diameter rating (L. monocytogenes TT82E) | Antibacterial activity against Enterococcus faecium (in words) (Enterococcus faecium) | Antimicrobial activity, diameter rating [1] | Antimicrobial activity, diameter rating [2] | Antimicrobial activity, diameter rating (E. faecium LMG11423) | Antimicrobial activity, diameter rating (Escherichia coli CECT101) | Antimicrobial activity, diameter rating [3] | Antimicrobial activity, diameter rating [4] | Antimicrobial activity, diameter rating (B. cereus CH-85) | Antimicrobial activity, diameter rating [5] | Antimicrobial activity, diameter rating (S. aureus LMG10147) | Antimicrobial activity, diameter rating [6] | Antimicrobial activity, diameter rating [7] | also measured
1 | C=C(NC(=O)[C@@H](NC(=O)[C@H](Cc1c[nH]cn1)NC(=O)[C@@H](NC(=O)[C@H](CO)NC(=O)[C@@H]1CS[C@@H](C)[C@H]2NC(=O)[C@H](C)NC(=O)[C@H](NC(=O)[C@H](CCCCN)NC(=O)[C@@H](NC(=O)[C@H](CC(N)=O)NC(=O)[C@@H]3CS[C@@H](C)[C@@H](NC(=O)[C@H](CCCCN)NC(=O)[C@@H]4CS[C@@H](C)[C@@H](NC(=O)[C@@H]5CSC[C@@H](NC(=O)/C(=C/C)NC(=O)[C@@H](N)[C@@H](C)CC)C(=O)N[C@@H]([C@@H](C)CC)C(=O)NC(=C)C(=O)N[C@@H](CC(C)C)C(=O)N5)C(=O)N5CCC[C@H]5C(=O)NCC(=O)N4)C(=O)NCC(=O)N[C@@H](C)C(=O)N[C@@H](CC(C)C)C(=O)N[C@@H](CCn4cc(CCCCCCCC)nn4)C(=O)NCC(=O)N3)C(C)C)[C@H](C)SC[C@H](NC2=O)C(=O)N[C@@H](Cc2c[nH]cn2)C(=O)N1)[C@@H](C)CC)C(C)C)C(=O)N[C@@H](CCCCN)C(=O)O [compound 16] | ++ (4–8 mm, + +) | high potency of nisin against Enterococcus faecium was retained | + (0–4 mm, +) | ++++ (12–16 mm, ++++) | +++++ (16–20 mm, +++++) | + (0–4 mm, +) | ++++ (12–16 mm, ++++) | ++ (4–8 mm, + +) | ++ (4–8 mm, + +) | ++ (4–8 mm, + +) | + (0–4 mm, +) | ++++ (12–16 mm, ++++) | ++++ (12–16 mm, ++++) | Area1: area of the inhibition zone minus the well area, Enterococcus faecium (Enterococcus faecium; Figure 4, second round, 30 μL click reaction solution in 8 mm well, GM17 agar, overnight 37 °C, triplicate): 51 mm^2; Area2: area of the inhibition zone minus the well area, Listeria monocytogenes (Listeria monocytogenes): 19 mm^2
2 | C=C(NC(=O)[C@@H](NC(=O)[C@H](Cc1c[nH]cn1)NC(=O)[C@@H](NC(=O)[C@H](CO)NC(=O)[C@@H]1CS[C@@H](C)[C@H]2NC(=O)[C@H](C)NC(=O)[C@H](NC(=O)[C@H](CCCCN)NC(=O)[C@@H](NC(=O)[C@H](CC(N)=O)NC(=O)[C@@H]3CS[C@@H](C)[C@@H](NC(=O)[C@H](CCCCN)NC(=O)[C@@H]4CS[C@@H](C)[C@@H](NC(=O)[C@@H]5CSC[C@@H](NC(=O)/C(=C/C)NC(=O)[C@@H](N)[C@@H](C)CC)C(=O)N[C@@H]([C@@H](C)CC)C(=O)NC(=C)C(=O)N[C@@H](CC(C)C)C(=O)N5)C(=O)N5CCC[C@H]5C(=O)NCC(=O)N4)C(=O)NCC(=O)N[C@@H](C)C(=O)N[C@@H](CC(C)C)C(=O)N[C@@H](CCn4cc(CCCc5ccccc5)nn4)C(=O)NCC(=O)N3)C(C)C)[C@H](C)SC[C@H](NC2=O)C(=O)N[C@@H](Cc2c[nH]cn2)C(=O)N1)[C@@H](C)CC)C(C)C)C(=O)N[C@@H](CCCCN)C(=O)O [compound 47] | ++ (4–8 mm, + +) | high potency of nisin against Enterococcus faecium was retained | + (0–4 mm, +) | ++++ (12–16 mm, ++++) | +++++ (16–20 mm, +++++) | + (0–4 mm, +) | ++++ (12–16 mm, ++++) | ++ (4–8 mm, + +) | ++ (4–8 mm, + +) | ++ (4–8 mm, + +) | + (0–4 mm, +) | ++++ (12–16 mm, ++++) | ++++ (12–16 mm, ++++) | Loss in antimicrobial activity after exposure to proteinase K (proteinase K): 77%; Loss in antimicrobial activity after exposure to chymotrypsin (chymotrypsin): 16%; Concentration with minimal hemolytic activity (200 mg/L) relative to MIC against Enterococcus faecium (human red blood cells): 50 fold; MIC value against E. faecium strains [8]: 3.8 mg/L (≈ 1.1 µM); Binding to lipid II (effect of added purified lipid II on the inhibition halo) [9]: retained its ability to bind to lipid II; Loss in antimicrobial activity on storage at elevated temperature [10]: Less than 40%
